Test [1] has as its system KRas G12D-mediated Phosphorylation of ERK. The test is described as follows: Inhibition of KRas G12D-mediated Phosphorylation of ERK in AGS cells. It counts as cell-based. As to conditions: Homo sapiens; AGS cells expressing G12D, 3 hours, phospho-ERK normalized to GAPDH. How it is done: AGS cells (ATCC CRL-1739) expressing G12D were grown in DMEM medium supplemented with 10% fetal bovine serum, 10 mM HEPES, and Penicillin/Streptomycin. Cells were plated in tissue culture treated 96 well plates at a density of 40,000 cells/well and allowed to attach for 12-14 hours. Diluted compounds were then added in a final concentration of 0.5% DMSO. After 3 hours, the medium was removed, 150 μl of 4.0% formaldehyde was added and the plates incubated at room temperature for 20 minutes. The plates were washed with PBS, and permeabilized with 150 μL of ice cold 100% methanol for 10 minutes. Non-specific antibody binding to the plates was blocked using 100 μL Licor blocking buffer (Li-Cor Biotechnology, Lincoln NE) for 1 hour at room temperature.
The amount of phospho-ERK was determined using an antibody specific for the phosphorylated form of ERK and compared to the amount of GAPDH. Primary antibodies used for the detection were added as follows: Phospho-ERK(Cell Signaling cs-9101) diluted 1:500 and GAPDH(Millipore MAB374) diluted 1:5000 in Licor block+0.05% Tween 20. The plates were incubated for 2 hours at room temperature. The plates were washed with PBS+0.05% Tween 20.
Secondary antibodies used to visualize primary antibodies were added as follows: Anti-rabbit-680 diluted 1:1000 and Anti-mouse-800 diluted 1:1000 both in Licor block+0.05% Tween20, and were incubated for 1 hour at room temperature. The plates were washed with PBS+0.05% Tween 20. A 100 μl aliquot of PBS was added to each well and the plates were read on a Li-Cor Odyssey CLX plate reader.
The phospho-ERK(Thr202/Tyr204 signal was normalized to the GAPDH signal for each well and percent of DMSO control values were calculated. IC50 values were generated using a 4-parameter fit of the dose response curve.

The target in a further test is KRas G12D (Homo sapiens, UniProt P01116, G12D). Nature of the test: KRas G12D Binding Assay (TR-FRET displacement of labeled tracer). On the set-up: corresponding to amino acids 1:169, produced at Array BioPharma; biotin (protein is biotinylated). Conditions: TR-FRET displacement of Cy5 labelled tracer, biotinylated GDP-loaded KRAS G12D (aa 1:169), 60 minute incubation at 22° C. The method in brief: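 Biotinylated GDP-loaded human KRAS G12D (aa 1–169) incubated with Cy5 tracer, Eu-streptavidin and compound (2% DMSO final) in 50 mM HEPES pH 7.5, 5 mM MgCl2, 0.005% Tween-20, 1 mM DTT, 60 min at 22 °C. TR-FRET ratio converted to percent of control; IC50 at 50 POC from 4-parameter logistic fit.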
Sequence of KRas G12D (P01116 1-169 isoform P01116-2 G12D): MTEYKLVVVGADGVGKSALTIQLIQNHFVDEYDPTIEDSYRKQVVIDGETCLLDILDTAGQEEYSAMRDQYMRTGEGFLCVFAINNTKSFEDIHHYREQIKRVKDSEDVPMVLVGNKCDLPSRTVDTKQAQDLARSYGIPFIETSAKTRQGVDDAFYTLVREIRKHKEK

Our source for the IC50 values is patent US12686692B2, “KRas G12D inhibitors” (Mirati Therapeutics, Inc., priority 2020, dated 2026).

On to `F[C@H]1CN2CCCC2(COc2nc3c(c(N4CC5CCC(C4)N5)n2)CCN(c2cccc4cccc(C(F)(F)F)c24)C3)C1` (mixture of isomers) [Example 51, 4-((1R,5S)-3,8-diazabicyclo[3.2.1]octan-3-yl)-2-((2-fluorotetrahydro-1H-pyrrolizin-7a(5H)-yl)methoxy)-7-(8-(trifluoromethyl)naphthalen-1-yl)-5,6,7,8-tetrahydropyrido[3,4-d]pyrimidine], for which the IC50 (as a rule, the concentration at which inhibition is half-maximal) in test [1] is more than 16700 nM; on KRas G12D, 16.9 nM.
With `F[C@H]1CN2CCCC2(COc2nc3c(c(N4CC5CCC(C4)N5)n2)CCN(c2cccc(Cl)c2C(F)(F)F)C3)C1` (mixture of isomers) [Example 48, 4-((1R,5S)-3,8-diazabicyclo[3.2.1]octan-3-yl)-7-(3-chloro-2-(trifluoromethyl)phenyl)-2-((2-fluorotetrahydro-1H-pyrrolizin-7a(5H)-yl)methoxy)-5,6,7,8-tetrahydropyrido[3,4-d]pyrimidine], the IC50 in test [1] is 5220 nM; at KRas G12D it was 5.5 nM.
For the compound `CCc1cccc2cc(O)cc(N3CCc4c(nc(OCC56CCCN5C(CF)CC6)nc4N4CC5CCC(C4)N5)C3)c12` (mixture of isomers) [Example 23, 4-(4-((1R,5S)-3,8-diazabicyclo[3.2.1]octan-3-yl)-2-((3-(fluoromethyl)tetrahydro-1H-pyrrolizin-7a(5H)-yl)methoxy)-5,8-dihydropyrido[3,4-d]pyrimidin-7(6H)-yl)-5-ethylnaphthalen-2-ol (mixture or isomers)], the IC50 in test [1] came out at 119 nM; on KRas G12D it was 1.1 nM.
In the case of `CCc1c(F)ccc2cccc(N3CCc4c(nc(OCC56CCCN5CCC6)nc4N4C[C@H]5CC[C@@H](C4)N5)C3)c12` [Example 19, 4-((1R,5S)-3,8-diazabicyclo[3.2.1]octan-3-yl)-7-(8-ethyl-7-fluoronaphthalen-1-yl)-2-((tetrahydro-1H-pyrrolizin-7a(5H)-yl)methoxy)-5,6,7,8-tetrahydropyrido[3,4-d]pyrimidine], the results for the IC50 (in test [1]; at KRas G12D) were 324 nM and 1.8 nM, respectively.
Taken in the same sequence, the figures for `CCc1cccc2cccc(N3CCc4c(nc(OC[C@@]56CCCN5C[C@H](F)C6)nc4[C@H]4C[C@H]5CC[C@@H](C4)N5)C3)c12` [Example 121, 4-((1R,3r,5S)-8-azabicyclo[3.2.1]octan-3-yl)-7-(8-ethylnaphthalen-1-yl)-2-(((2R,7aS)-2-fluorotetrahydro-1H-pyrrolizin-7a(5H)-yl)methoxy)-5,6,7,8-tetrahydropyrido[3,4-d]pyrimidine] were 2360 nM and 8.7 nM.
On to `Oc1cc(N2CCc3c(nc(OCC45CCCN4C[C@H](F)C5)nc3N3CC4CCC(C3)N4)C2)c2ccccc2c1` (mixture of isomers) [Example 47, 4-(4-((1R,5S)-3,8-diazabicyclo[3.2.1]octan-3-yl)-2-((2-fluorotetrahydro-1H-pyrrolizin-7a(5H)-yl)methoxy)-5,8-dihydropyrido[3,4-d]pyrimidin-7(6H)-yl)naphthalen-2-ol], for which the IC50 in test [1] worked out at 537 nM; on KRas G12D, 1 nM.
For `CN(C)C(=O)OC[C@H]1CCC2(COc3nc4c(c(N5CC6CCC(C5)N6)n3)CCN(c3cccc(Cl)c3C3CC3)C4)CCCN12` (stereo partly drawn) [Example 33, (7a-(((4-((1R,5S)-3,8-diazabicyclo[3.2.1]octan-3-yl)-7-(3-chloro-2-cyclopropylphenyl)-5,6,7,8-tetrahydropyrido[3,4-d]pyrimidin-2-yl)oxy)methyl)hexahydro-1H-pyrrolizin-3-yl)methyl dimethylcarbamate (trans enantiomers)], the figures for the IC50 (in test [1]; on KRas G12D) were 5560 nM and 50.2 nM, respectively.
`CCc1cccc2cccc(N3CCc4c(nc(OCC56CCCN5C(COC(=O)N(CC)CC)CC6)nc4N4C[C@H]5CC[C@@H](C4)N5)C3)c12` (mixture of isomers) [Example 66, (7a-(((4-((1R,5S)-3,8-diazabicyclo[3.2.1]octan-3-yl)-7-(8-ethylnaphthalen-1-yl)-5,6,7,8-tetrahydropyrido[3,4-d]pyrimidin-2-yl)oxy)methyl)hexahydro-1H-pyrrolizin-3-yl)methyl diethylcarbamate]: the IC50 in test [1] was found to be 2210 nM; at KRas G12D, 4.6 nM.
Taken in the same sequence, the figures for `CCc1cccc2cc(O)cc(N3CCc4c(nc(OCC56CCCN5CCC6)nc4N4C[C@H]5CC[C@@H](C4)N5)C3)c12` [Example 14, 4-(4-((1R,5S)-3,8-diazabicyclo[3.2.1]octan-3-yl)-2-((tetrahydro-1H-pyrrolizin-7a(5H)-yl)methoxy)-5,8-dihydropyrido[3,4-d]pyrimidin-7(6H)-yl)-5-ethylnaphthalen-2-ol] were 21 nM and 1.1 nM.
Regarding `CCc1cccc2cc(O)cc(N3CCc4c(nc(OC[C@@]56CCCN5C[C@H](F)C6)nc4N4C[C@H]5CC[C@@H](C4)N5)C3)c12` [Example 7, 4-(4-((1R,5S)-3,8-diazabicyclo[3.2.1]octan-3-yl)-2-(((2R,7aS)-2-fluorotetrahydro-1H-pyrrolizin-7a(5H)-yl)methoxy)-5,8-dihydropyrido[3,4-d]pyrimidin-7(6H)-yl)-5-ethylnaphthalen-2-ol], the IC50 in test [1] amounted to 13 nM; at KRas G12D, 1 nM.
Taken in the same sequence, the figures for `CCc1cccc2cccc(N3CCc4c(nc(OCC56CCCN5C(COC(=O)N5CCS(=O)(=O)CC5)CC6)nc4N4C[C@H]5CC[C@@H](C4)N5)C3)c12` (mixture of isomers) [Example 67, (7a-(((4-((1R,5S)-3,8-diazabicyclo[3.2.1]octan-3-yl)-7-(8-ethylnaphthalen-1-yl)-5,6,7,8-tetrahydropyrido[3,4-d]pyrimidin-2-yl)oxy)methyl)hexahydro-1H-pyrrolizin-3-yl)methyl thiomorpholine-4-carboxylate 1,1-dioxide] were 150 nM and 1.5 nM.
The corresponding values for `CN1CCC[C@H]1COc1nc2c(c(N3C[C@H]4C[C@H](O)[C@@H](C3)N4)n1)CCN(c1cccc3cccc(Cl)c13)C2` [Example 96, (1R,5R,6S)-3-(7-(8-chloronaphthalen-1-yl)-2-(((S)-1-methylpyrrolidin-2-yl)methoxy)-5,6,7,8-tetrahydropyrido[3,4-d]pyrimidin-4-yl)-3,8-diazabicyclo[3.2.1]octan-6-ol] are more than 16700 nM and 331 nM.
The corresponding values for `Oc1cc(N2CCc3c(nc(OCC45CCCN4CCC5)nc3N3C[C@H]4CC[C@@H](C3)N4)C2)c2c(Cl)c(F)ccc2c1` [Example 116, 4-(4-((1R,5S)-3,8-diazabicyclo[3.2.1]octan-3-yl)-2-((hexahydro-1H-pyrrolizin-7a-yl)methoxy)-5,6-dihydropyrido[3,4-d]pyrimidin-7(8H)-yl)-5-chloro-6-fluoronaphthalen-2-ol] are 46 nM and 0.5 nM.
In the case of `CCc1cccc2cccc(N3CCc4c(nc(OCC56CCCN5C(COC(=O)N(C)OC)CC6)nc4N4C[C@H]5CC[C@@H](C4)N5)C3)c12` (mixture of isomers) [Example 68, (7a-(((4-((1R,5S)-3,8-diazabicyclo[3.2.1]octan-3-yl)-7-(8-ethylnaphthalen-1-yl)-5,6,7,8-tetrahydropyrido[3,4-d]pyrimidin-2-yl)oxy)methyl)hexahydro-1H-pyrrolizin-3-yl)methyl methoxy(methyl)carbamate], the IC50 in test [1] came out at 1330 nM; at KRas G12D it was 5.9 nM.
The corresponding values for `c1ccc2c(N3CCc4c(nc(OCC56CCCN5CCC6)nc4N4C[C@H]5CC[C@@H](C4)N5)C3)cccc2c1` [Example 114, 4-((1R,5S)-3,8-diazabicyclo[3.2.1]octan-3-yl)-2-((hexahydro-1H-pyrrolizin-7a-yl)methoxy)-7-(naphthalen-1-yl)-5,6,7,8-tetrahydropyrido[3,4-d]pyrimidine] are more than 16700 nM and 34.2 nM.
As to `CCc1cccc2cccc(N3CCc4c(nc(OC[C@]56CCCN5[C@@H](COC(=O)N5CCCC5)CC6)nc4N4C[C@H]5CC[C@@H](C4)N5)C3)c12` [Example 99, ((3R,7aR)-7a-(((4-((1R,5S)-3,8-diazabicyclo[3.2.1]octan-3-yl)-7-(8-ethylnaphthalen-1-yl)-5,6,7,8-tetrahydropyrido[3,4-d]pyrimidin-2-yl)oxy)methyl)hexahydro-1H-pyrrolizin-3-yl)methyl pyrrolidine-1-carboxylate], the half-maximal inhibitory concentration (IC50) in test [1] was 559 nM; on KRas G12D, 2.7 nM.
